What was measured:
[1] = molecular target: Galectin-1 (Homo sapiens, UniProt P09382); test: Fluorescence anisotropy assay, affinity for galectin-1; assay type: binding; conditions: compound as inhibitor of the interaction between galectin and a fluorescein tagged saccharide probe
Method: (§1) The affinity of Example 1-43 for galectins were determined by a fluorescence anisotropy assay where the compound was used as an inhibitor of the interaction between galectin and a fluorescein tagged saccharide probe as described Sörme, P., Kahl-Knutsson, B., Huflejt, M., Nilsson, U. J., and Leffler H. (2004) Fluorescence polarization as an analytical tool to evaluate galectin-ligand interactions. Anal. Biochem. 334: 36-47, (Sörme et al., 2004) and Monovalent interactions of Galectin-1 By Salomonsson, Emma; Larumbe, Amaia; Tejler, Johan; Tullberg, Erik; Rydberg, Hanna; Sundin, Anders; Khabut, Areej; Frejd, Torbjomn; Lobsanov, Yuri D.; Rini, James M.; et al, From Biochemistry (2010), 49(44), 9518-9532, (Salomonsson et al., 2010).

[2] = molecular target: Galectin-3 (Homo sapiens, UniProt P17931); test: Fluorescence anisotropy assay, affinity for galectin-3; assay type: binding; conditions: compound as inhibitor of the interaction between galectin and a fluorescein tagged saccharide probe
Chain of Galectin-3 (P17931 whole entry): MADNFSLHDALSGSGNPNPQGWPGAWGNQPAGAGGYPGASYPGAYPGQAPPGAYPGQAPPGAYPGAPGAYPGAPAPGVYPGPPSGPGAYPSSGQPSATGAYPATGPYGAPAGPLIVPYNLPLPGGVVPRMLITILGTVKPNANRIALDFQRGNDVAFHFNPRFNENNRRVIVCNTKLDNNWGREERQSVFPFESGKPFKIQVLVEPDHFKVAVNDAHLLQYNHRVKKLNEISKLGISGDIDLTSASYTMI
Method: as §1

Chain of Galectin-1 (P09382 whole entry): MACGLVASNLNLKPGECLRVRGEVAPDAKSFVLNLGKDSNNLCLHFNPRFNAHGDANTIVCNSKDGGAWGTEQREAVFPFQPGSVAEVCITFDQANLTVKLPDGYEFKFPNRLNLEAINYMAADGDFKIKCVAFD

| Compound | Kd [1] [nM] | Kd [2] [nM] |
| --- | --- | --- |
| COC1[C@@H](Sc2cc(Br)cnc2C(=O)NC2CC2)OC(CO)[C@H](O)[C@@H]1n1cc(-n2ccc(Cl)n2)nn1 (stereo partly drawn) [Example 41, 5-Bromo-2-(N-cyclopropylcarbamoyl)pyridin-3-yl 3-[4-(3-chloro-1H-1,2-pyrazol-1-yl)-1H-1,2,3-triazol-1-yl]-3-deoxy-2-O-methyl-1-thio-α-D-galactopyranoside] | 73 | 160 |
| CNC(=O)c1ccc(Br)cc1S[C@H]1OC(CO)[C@H](O)C(n2cc(-n3ccc(Cl)n3)nn2)C1OC (stereo partly drawn) [Example 1, 5-Bromo-2-(N-methyl-carbonyl)phenyl 3-[4-(3-chloro-1H-1,2-pyrazol-1-yl)-1H-1,2,3-triazol-1-yl]-3-deoxy-2-O-methyl-1-thio-α-D-galactopyranoside] | 57 | 160 |
| COC1C(n2cc(-n3ccc(C)n3)nn2)[C@@H](O)C(CO)O[C@@H]1Sc1cc(Br)cnc1C#N (stereo partly drawn) [Example 14, 5-Bromo-2-cyanopyridin-3-yl 3-deoxy-3-[4-(3-methyl-1H-1,2-pyrazol-1-yl)-1H-1,2,3-triazol-1-yl]-2-O-methyl-1-thio-α-D-galactopyranoside] | 180 | 1400 |
| COC1C(n2cc(-n3ccc(Cl)n3)nn2)[C@@H](O)C(CO)O[C@@H]1Sc1cc(Br)ccc1C#N (stereo partly drawn) [Example 2, 5-Bromo-2-cyanophenyl 3-[4-(3-chloro-1H-1,2-pyrazol-1-yl)-1H-1,2,3-triazol-1-yl]-3-deoxy-2-O-methyl-1-thio-α-D-galactopyranoside] | 85 | 130 |
| COC1[C@@H](Sc2cc(Br)cnc2C(=O)NC2CCC2)OC(CO)[C@H](O)[C@@H]1n1cc(-n2ccc(Cl)n2)nn1 (stereo partly drawn) [Example 40, 5-Bromo-2-(N-cyclobutylcarbamoyl)pyridin-3-yl 3-[4-(3-chloro-1H-1,2-pyrazol-1-yl)-1H-1,2,3-triazol-1-yl]-3-deoxy-2-O-methyl-1-thio-α-D-galactopyranoside] | 82 | 160 |

The remaining compounds from weak to strong by Kd [1], led by results:

| Kd [1] [nM] | Kd [2] [nM] | Compound |
| --- | --- | --- |
| 1700 | 360 | OCC1O[C@H](Sc2cncc(Cl)c2)C(O)C(n2cc(-n3ccc(F)n3)nn2)[C@H]1O (stereo partly drawn) [Example 4, 5-Chloropyridin-3-yl 3-deoxy-3-[4-(3-fluoro-1H-1,2-pyrazol-1-yl)-1H-1,2,3-triazol-1-yl]-1-thio-α-D-galactopyranoside] |
| 350 | 400 | COC1C(n2cc(-n3nc(Cl)cc3C)nn2)[C@@H](O)C(CO)O[C@@H]1Sc1cc(Br)cnc1C#N (stereo partly drawn) [Example 16, 5-Bromo-2-cyanopyridin-3-yl 3-[4-(3-chloro-5-methyl-1H-1,2-pyrazol-1-yl)-1H-1,2,3-triazol-1-yl]-3-deoxy-2-O-methyl-1-thio-α-D-galactopyranoside] |
| 270 | 140 | COC1C(n2cc(-n3cc(F)c(Cl)n3)nn2)[C@@H](O)C(CO)O[C@@H]1Sc1cc(Br)cnc1C#N (stereo partly drawn) [Example 43, 5-Bromo-2-cyanopyridin-3-yl 3-[4-(3-chloro-4-fluoro-1H-1,2-pyrazol-1-yl)-1H-1,2,3-triazol-1-yl]-3-deoxy-2-O-methyl-1-thio-α-D-galactopyranoside] |
| 210 | 390 | COC1C(n2cc(-n3ccc(Cl)n3)nn2)[C@@H](O)C(CO)O[C@@H]1Sc1cnc(C(F)(F)F)c(Br)c1 (stereo partly drawn) [Example 9, 3-Bromo-2-(trifluoromethyl)pyridin-5-yl 3-[4-(3-chloro-1H-1,2-pyrazol-1-yl)-1H-1,2,3-triazol-1-yl]-3-deoxy-2-O-methyl-1-thio-α-D-galactopyranoside] |
| 72 | 60 | COC1C(n2cc(-n3ccc(Cl)n3)nn2)[C@@H](O)C(CO)O[C@@H]1Sc1cc(Br)cnc1C(=O)N(CC1CC1)C(C)C (stereo partly drawn) [Example 31, 5-Bromo-2-[N,N-(cyclopropylmethyl)isopropylcarbamoyl]pyridin-3-yl 3-[4-(3-chloro-1H-1,2-pyrazol-1-yl)-1H-1,2,3-triazol-1-yl]-3-deoxy-2-O-methyl-1-thio-α-D-galactopyranoside] |
